Experiment [1] has as its system Pfeiffer cells. Nature of the experiment: Cell proliferation test (Cell counting kit-8, 6 days). It is filed as cell-based. As to conditions: Pfeiffer (CRL-2632) cells, culture for 6 days, viable cells by Cell counting kit-8. The protocol: The used cell lines Pfeiffer (CRL-2632), suDHL-6 (CRL-2959) and suDHL-10 (CRL-2963) were purchased from American Type Culture Collection (ATCC). All cell lines were cultured in RPMI-1640 medium (Gibco) containing 10% fetal bovine serum (Gibco). The cultured cells were collected by centrifugation and the cell density was measured on a CounterStar counter. Appropriate number of cells were then seeded in a 96-well culture plate and incubated overnight. Compounds to be tested were diluted by 8 gradient points in a ratio of 1:3 and added into the corresponding wells. After continuing to culture for 6 days, the number of viable cells was measured with Cell counting kit-8, and the absorbance value was read on Tecan infinite pro. The IC50 was calculated by fitting a four-parameter model in the XLfit software.
A general note: Tetrazolium assays rely on reduction of a dye to a coloured formazan, in cell work by metabolically active cells.

Experiment [2] deals with EZH2 Y641F (Homo sapiens (Human), UniProt Q15910, Y641F). Put plainly: In vitro methyltransferase activity test (LANCE Ultra). It is filed as biochemical. As to conditions: Recombinant PRC2 (EZH2-Y641F), 2.5 μM SAM/250 nM H3(1-50)K27me1, 3 hours, room temperature. Background: Time-resolved FRET reads energy transfer from a long-lived donor to a nearby acceptor.
Chain of EZH2 Y641F (Q15910 whole entry Y641F): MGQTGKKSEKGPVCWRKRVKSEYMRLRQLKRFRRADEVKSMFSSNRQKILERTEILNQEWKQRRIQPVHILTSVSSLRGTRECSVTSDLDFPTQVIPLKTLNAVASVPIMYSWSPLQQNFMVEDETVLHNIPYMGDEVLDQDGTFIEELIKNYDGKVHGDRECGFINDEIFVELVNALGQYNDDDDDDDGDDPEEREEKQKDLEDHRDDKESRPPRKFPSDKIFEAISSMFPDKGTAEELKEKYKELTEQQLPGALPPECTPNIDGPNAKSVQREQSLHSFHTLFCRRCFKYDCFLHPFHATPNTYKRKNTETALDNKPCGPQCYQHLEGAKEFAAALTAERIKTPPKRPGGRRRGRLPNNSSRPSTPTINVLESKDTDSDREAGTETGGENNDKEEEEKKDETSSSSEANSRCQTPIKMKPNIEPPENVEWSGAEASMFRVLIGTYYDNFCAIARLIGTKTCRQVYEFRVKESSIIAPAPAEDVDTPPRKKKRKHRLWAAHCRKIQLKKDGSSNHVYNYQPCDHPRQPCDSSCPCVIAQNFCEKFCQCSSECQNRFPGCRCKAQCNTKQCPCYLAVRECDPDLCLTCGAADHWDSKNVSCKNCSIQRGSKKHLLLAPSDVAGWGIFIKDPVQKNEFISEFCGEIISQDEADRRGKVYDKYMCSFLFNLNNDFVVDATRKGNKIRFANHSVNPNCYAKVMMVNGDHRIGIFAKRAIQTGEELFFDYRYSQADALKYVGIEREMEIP
Chain of EZH2 Y641F (O75530 whole entry partner): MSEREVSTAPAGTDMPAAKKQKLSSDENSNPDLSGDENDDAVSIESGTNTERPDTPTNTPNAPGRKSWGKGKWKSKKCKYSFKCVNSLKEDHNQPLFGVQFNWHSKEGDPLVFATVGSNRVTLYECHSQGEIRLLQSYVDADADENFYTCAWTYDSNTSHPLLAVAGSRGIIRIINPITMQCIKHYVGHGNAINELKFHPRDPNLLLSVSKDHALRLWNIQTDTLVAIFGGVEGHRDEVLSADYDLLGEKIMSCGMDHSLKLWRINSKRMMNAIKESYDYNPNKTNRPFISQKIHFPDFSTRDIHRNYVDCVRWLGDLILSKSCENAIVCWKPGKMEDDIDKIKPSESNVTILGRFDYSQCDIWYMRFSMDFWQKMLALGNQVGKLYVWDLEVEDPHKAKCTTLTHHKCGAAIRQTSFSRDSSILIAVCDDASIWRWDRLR
Chain of EZH2 Y641F (Q15022 whole entry partner): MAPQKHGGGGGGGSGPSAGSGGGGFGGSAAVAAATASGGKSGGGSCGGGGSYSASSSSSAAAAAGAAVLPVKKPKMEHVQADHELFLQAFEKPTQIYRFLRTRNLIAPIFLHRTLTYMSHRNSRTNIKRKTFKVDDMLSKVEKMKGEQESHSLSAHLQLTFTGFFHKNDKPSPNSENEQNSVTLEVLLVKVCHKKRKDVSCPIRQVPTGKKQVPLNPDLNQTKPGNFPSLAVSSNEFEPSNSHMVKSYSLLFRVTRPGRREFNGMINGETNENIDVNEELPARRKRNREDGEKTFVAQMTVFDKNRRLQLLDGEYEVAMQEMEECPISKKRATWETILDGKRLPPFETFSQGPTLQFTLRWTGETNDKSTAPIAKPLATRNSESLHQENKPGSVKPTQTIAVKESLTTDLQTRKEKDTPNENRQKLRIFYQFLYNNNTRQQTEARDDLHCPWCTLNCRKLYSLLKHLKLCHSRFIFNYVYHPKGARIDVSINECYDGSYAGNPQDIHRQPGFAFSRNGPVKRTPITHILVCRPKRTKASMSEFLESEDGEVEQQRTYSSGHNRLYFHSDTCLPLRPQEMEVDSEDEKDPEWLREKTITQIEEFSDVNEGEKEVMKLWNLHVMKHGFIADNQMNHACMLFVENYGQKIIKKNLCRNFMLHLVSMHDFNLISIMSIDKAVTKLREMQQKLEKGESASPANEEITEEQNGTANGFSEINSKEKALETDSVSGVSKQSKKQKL
Chain of EZH2 Y641F (Q09028 whole entry partner): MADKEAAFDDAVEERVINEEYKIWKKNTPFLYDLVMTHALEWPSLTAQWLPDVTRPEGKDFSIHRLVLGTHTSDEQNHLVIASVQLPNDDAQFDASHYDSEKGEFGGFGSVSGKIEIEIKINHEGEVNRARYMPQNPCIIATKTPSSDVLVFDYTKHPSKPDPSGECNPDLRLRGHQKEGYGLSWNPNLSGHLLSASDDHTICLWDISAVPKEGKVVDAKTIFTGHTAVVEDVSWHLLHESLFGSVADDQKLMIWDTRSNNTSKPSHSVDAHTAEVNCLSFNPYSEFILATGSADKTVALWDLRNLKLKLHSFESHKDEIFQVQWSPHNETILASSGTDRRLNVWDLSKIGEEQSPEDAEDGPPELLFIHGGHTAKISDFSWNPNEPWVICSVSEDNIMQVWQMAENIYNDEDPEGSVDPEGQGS
Chain of EZH2 Y641F (Q6ZN18 whole entry partner): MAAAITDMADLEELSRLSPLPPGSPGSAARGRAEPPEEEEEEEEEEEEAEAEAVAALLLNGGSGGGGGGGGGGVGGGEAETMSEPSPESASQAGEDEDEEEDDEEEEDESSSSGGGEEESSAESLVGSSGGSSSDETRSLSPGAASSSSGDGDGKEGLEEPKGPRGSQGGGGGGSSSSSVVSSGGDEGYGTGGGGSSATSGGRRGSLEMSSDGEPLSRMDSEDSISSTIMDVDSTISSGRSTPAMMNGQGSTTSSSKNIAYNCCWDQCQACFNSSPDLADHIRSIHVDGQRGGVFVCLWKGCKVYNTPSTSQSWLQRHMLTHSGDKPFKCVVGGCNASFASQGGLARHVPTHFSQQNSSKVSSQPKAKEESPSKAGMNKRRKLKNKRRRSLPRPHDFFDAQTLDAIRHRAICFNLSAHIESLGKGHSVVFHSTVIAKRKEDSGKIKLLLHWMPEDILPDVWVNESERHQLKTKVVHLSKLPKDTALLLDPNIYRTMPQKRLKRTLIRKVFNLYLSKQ
Protocol: The detection system uses LANCEUltra system (Perkinelmer company). […] And then a buffer [20 mM Tris pH8.5, 2 mM MgCl2, 0.01% Tween-20, 1 mM TCEP] containing 2.5 μM SAM/250 nM H3 (1-50)K27me1 premixtures was added, thus the enzyme reaction was started at room temperature. After reacting for 3 hours, a test solution premixed with PLL, detection antibody and Ulight was added, and reacted for 1h at room temperature, then the fluorescence value was read on a Tecan infinite pro. IC50 was calculated by fitting a four-factor model in the XLfit software.

As for `C=CCC1(S(=O)(=O)n2cc(C)c3c(C(=O)NCc4c(C)cc(C)[nH]c4=O)cc(-c4ccc(CCN5CCOCC5)nc4)cc32)CC1` [Compound G-3], the values for the IC50 in experiment [1] and in experiment [2] were 300 nM and 28 nM, respectively.
In the case of `C=CCC1(S(=O)(=O)n2cc(C)c3c(C(=O)NCc4c(C)cc(C)[nH]c4=O)cc(-c4ccc(CN(C)C)cc4)cc32)CC1` [Compound G-4], in experiment [2], the IC50 (as a rule, the concentration at which inhibition is half-maximal) was found to be 22 nM.
`C=CCC1(S(=O)(=O)n2cc(C)c3c(C(=O)NCc4c(C)cc(C)[nH]c4=O)cc(-c4ccc(OCCN(C)C)cc4)cc32)CC1` [Compound G-5]: the IC50 in experiment [1] came to 429 nM; in experiment [2], 17 nM.
For `C=CCC1(S(=O)(=O)n2cc(C)c3c(C(=O)NCc4c(C)cc(C)[nH]c4=O)cc(-c4ccc(CN(C)C)cc4)cc32)CC1` [Compound G-6], the IC50 came out at 352 nM in experiment [1] and 19 nM in experiment [2].
For `C=CCC1(S(=O)(=O)n2cc(C)c3c(C(=O)NCc4c(C)cc(C)[nH]c4=O)cc(-c4cccnc4)cc32)CC1` [Compound G-7], the IC50 turned out to be 380 nM in experiment [1] and 33 nM in experiment [2].
The corresponding values for `C=CCC1(S(=O)(=O)n2cc(C)c3c(C(=O)NCc4c(C)cc(C)[nH]c4=O)cc(-c4ccc(N(C)C)nc4)cc32)CC1` [Compound G-8] are 327 nM and 40 nM.
Turning to `C=CCC1(S(=O)(=O)n2cc(C)c3c(C(=O)NCc4c(C)cc(C)[nH]c4=O)cc(-c4ccc(N)nc4)cc32)CC1` [Compound G-9], the IC50 in experiment [1] came out at 450 nM; in experiment [2], 35 nM.
As to `C=CCC1(S(=O)(=O)n2cc(C)c3c(C(=O)NCc4c(C)cc(C)[nH]c4=O)cc(-c4ccc(C#N)nc4)cc32)CC1` [Compound G-10], the IC50 in experiment [2] was 41 nM.
Same read-out and setting: the result for `C=CCC1(S(=O)(=O)n2cc(C)c3c(C(=O)NCc4c(C)cc(C)[nH]c4=O)cc(-c4ccc(OCCCN(C)C)cc4)cc32)CC1` [Compound G-11] reads 32 nM.
With `C=CCC1(S(=O)(=O)n2cc(C)c3c(C(=O)NCc4c(C)cc(C)[nH]c4=O)cc(-c4ccc(N5CCOCC5)nc4)cc32)CC1` [Compound G-12], the IC50 in experiment [1] worked out at 485 nM; in experiment [2], 58 nM.
`C=CCC1(S(=O)(=O)n2cc(C)c3c(C(=O)NCc4c(C)cc(C)[nH]c4=O)cc(-c4cnc(N5CCN(C)CC5)nc4)cc32)CC1` [Compound G-13]: the IC50 in experiment [1] came to 75 nM; in experiment [2], 13 nM.
Take `C=CCC1(S(=O)(=O)n2cc(OC)c3c(C(=O)NCc4c(C)cc(C)[nH]c4=O)cc(-c4ccc(N5CCN(C)CC5)nc4)cc32)CC1` [Compound G-14]: the figures for the IC50 in experiment [1] and in experiment [2] were 27 nM and 5 nM, respectively.
On to `C=CCC1(S(=O)(=O)n2cc(C)c3c(C(=O)NCc4c(C)cc(C)[nH]c4=O)cc(-c4ccc(CN(C)C)cc4F)cc32)CC1` [Compound G-15], for which the IC50 in experiment [1] stood at 219 nM; in experiment [2] it was 25 nM.
In the case of `C=CCC1(S(=O)(=O)n2cc(C)c3c(C(=O)NCc4c(C)cc(C)[nH]c4=O)cc(-c4ccc(CN(C)C)c(F)c4)cc32)CC1` [Compound G-16], the IC50 in experiment [1] was determined as 335 nM; in experiment [2] it was 23 nM.
Taken in the same sequence, the figures for `C=CCC1(S(=O)(=O)n2cc(C)c3c(C(=O)NCc4c(C)cc(C)[nH]c4=O)cc(-c4ccc(CN(C)C)cc4F)cc32)CC1` [Compound G-18] were 368 nM and 42 nM.
Turning to `C=CCC1(S(=O)(=O)n2cc(C)c3c(C(=O)NCc4c(C)cc(C)[nH]c4=O)cc(-c4ccc(F)c(CN(C)C)c4)cc32)CC1` [Compound G-21], the IC50 in experiment [2] is 37 nM.
Regarding `C=CCC1(S(=O)(=O)n2cc(C)c3c(C(=O)NCc4c(C)cc(C)[nH]c4=O)cc(-c4cnc(N5CC(F)C5)nc4)cc32)CC1` [Compound G-24], the IC50 in experiment [1] stood at 60 nM; in experiment [2], 32 nM.
Taken in the same sequence, the figures for `C=CCC1(S(=O)(=O)n2cc(C)c3c(C(=O)NCc4c(OC)cc(C)[nH]c4=O)cc(-c4cnc(N5CC(F)C5)nc4)cc32)CC1` [Compound G-30] were 97 nM and 9 nM.
On to `C=CCC1(S(=O)(=O)n2cc(C)c3c(C(=O)NCc4c(OC)cc(C)[nH]c4=O)cc(-c4ccc(CN(C)C)cc4)cc32)CC1` [Compound G-32], for which the IC50 in experiment [1] turned out to be 79 nM; in experiment [2], 8 nM.
Take `C=CCC1(S(=O)(=O)n2cc(C)c3c(C(=O)NCc4c(OC)cc(C)[nH]c4=O)cc(-c4ccc(N)nc4)cc32)CC1` [Compound G-36]: the results for the IC50 in experiment [1] and in experiment [2] were 85 nM and 16 nM, respectively.
The corresponding values for `Cc1cc(C)c(CNC(=O)c2cc(-c3ccc(N4CCN(C)CC4)nc3)cc3c2CCN3S(=O)(=O)C(C)C)c(=O)[nH]1` [Compound G-47, N-((4,6-dimethyl-2-oxo-1,2-dihydropyridin-3-yl)methyl)-1-(isopropylsulfonyl)-6-(6-(4-methylpiperazin-1-yl)pyridin-3-yl)dihydroindole-4-carboxamide] are 2040 nM and 160 nM.
`C=CCC1(S(=O)(=O)n2cc(C)c3c(C(=O)NCc4c(C)cc(C)[nH]c4=O)cc(-c4ccc(N5CCN(C(C)C)CC5)nc4)cc32)CC1` [Compound G-48, 1-(1-allylcyclopropylsulfonyl)-N-((4,6-dimethyl-2-oxo-1,2-dihydropyridin-3-yl)methyl)-6-(6-(4-isopropylpiperazin-1-yl)pyridin-3-yl)-3-methyl-1H-indole-4-carboxamide]: the IC50 in experiment [1] (Homo sapiens, 144 h) stood at 211 nM; in experiment [2], 28 nM.
`C=CCC1(S(=O)(=O)n2cc(C)c3c(C(=O)NCc4c(C)cc(C)[nH]c4=O)cc(-c4cnc(N5CCNCC5)nc4)cc32)CC1` [Compound G-65]: the IC50 in experiment [1] amounted to 171 nM; in experiment [2] it was 17 nM.
Regarding `C=CCC1(S(=O)(=O)n2cc(C)c3c(C(=O)NCc4c(OC)cc(C)[nH]c4=O)cc(-c4cnc(N5CCN(C(C)C)CC5)nc4)cc32)CC1` [Compound G-67], the IC50 in experiment [1] (Homo sapiens, 144 h) stood at 22 nM; in experiment [2], 7 nM.
Turning to `C=CCC1(S(=O)(=O)n2cc(C)c3c(C(=O)NCc4c(OC(F)F)cc(C)[nH]c4=O)cc(-c4ccc(N5CCN(C)CC5)nc4)cc32)CC1` [Compound G-68], the values for the IC50 in experiment [1] and in experiment [2] were 152 nM and 34 nM, respectively.
As to `C=CCC1(S(=O)(=O)n2cc(C)c3c(C(=O)NCc4c(OC)cc(C)[nH]c4=O)cc(N4CCN(C)CC4)cc32)CC1` [Compound G-69], the IC50 in experiment [2] worked out at 26 nM.
Turning to `C=CCC1(S(=O)(=O)N2CC(C)c3c(C(=O)NCc4c(C)cc(C)[nH]c4=O)cc(-c4ccc(CN(C)C)cc4)cc32)CC1` (centres unmarked) [Compound G-75], the IC50 amounted to 1840 nM in experiment [1] and 280 nM in experiment [2].
In the case of `C=CCC1(S(=O)(=O)N2CCc3c(C(=O)NCc4c(C)cc(C)[nH]c4=O)cc(-c4ccc(N5CCN(C)CC5)nc4)cc32)CC1` [Compound G-76], the IC50 in experiment [1] is 2590 nM; in experiment [2], 460 nM.
For `C=CCC1(S(=O)(=O)N2CC(C)c3c(C(=O)NCc4c(C)cc(C)[nH]c4=O)cc(-c4ccc(N5CCN(C)CC5)nc4)cc32)CC1` (centres unmarked) [Compound G-77], the IC50 worked out at 1530 nM in experiment [1] and 147 nM in experiment [2].
`C=CCC1(S(=O)(=O)n2nc(C(F)F)c3c(C(=O)NCc4c(C)cc(C)[nH]c4=O)cc(-c4ccc(N5CCN(C)CC5)nc4)cc32)CC1` [Compound G-78]: the values for the IC50 in experiment [1] and in experiment [2] were 2520 nM and 1420 nM, respectively.
The corresponding values for `C=CCC1(S(=O)(=O)n2nc(C)c3c(C(=O)NCc4c(C)cc(C)[nH]c4=O)cc(-c4ccc(N5CCN(C)CC5)nc4)cc32)CC1` [Compound G-79] are 2820 nM and 585 nM.
On to `C#CCCS(=O)(=O)n1cc(C)c2c(C(=O)NCc3c(OC)cc(C)[nH]c3=O)cc(-c3ccc(N4CCN(C)CC4)nc3)cc21` [Compound G-81], for which the results for the IC50 in experiment [1] and in experiment [2] were 3800 nM and 196 nM, respectively.
